Experimental data from patent publication US20070220627A1, “Methods and Compositions for the Selection of a Transgenic Plant” (PIONEER HI-BRED INTERNATIONAL, INC., priority 2006, published 2007).

Test system: Non-transgenic maize seed from inbred N46
Test: Priming matrix additives: Dormex + DMSO
Format: in vivo
Conditions: 1% DMSO without Dormex, 3 hours, 95 seed
Experimental: Non-transgenic maize seed from inbred N46 were primed with 0, 5, 10, 15, or 30% Dormex® solutions with and without 1% DMSO. For each treatment, 96 seeds were soaked in 50 ml of Dormexe solution in a petri dish for 3 hours at room temperature. After priming the seeds were transferred into pollination bags, and dried overnight in front of a fan. Dried primed seed were then planted into flats to germinate.

For `C[S+](C)[O-]` [DMSO], the Germination % was 93% and the Seedlings was 88.
